# Reference: US20210145972A1, “NAN[…] A NUCLEIC ACID SCAFFOLD AND VIRUS-BINDING PEPTIDE MOIETIES” (FRAUNHOFER-GESELLSCHAFT ZUR FÖRDERUNG DER ANGEWANDTEN …, priority 2017, published 2021)
# “Also recorded” adds a separate entry of the source. Ends that are not written are not given here.
# B1: DNA-PeB3: three-branched DNA scaffold of three DNA strands (SEQ ID NOs 2-4) with three PeB peptide moieties, one per strand end (conjugate)
# DNA 1: ACTATCTTTGGTCTATTATCTTGAGTCATC
# DNA 2: TAGTTGTGTGTGTGTTAGACCAAAGATAGT
# DNA 3: GATGACTCAAGATAAACACACACACAACTA
# modifications: DNA, backbone and methylation of C not given here; PeB peptide conjugated at one end of each strand
# Columns and labels:
# Dengue virus = conditions: read-out: virus entry into host cells inhibited by 50% (IC50); cited from earlier work
# Dengue virus 2 = assay: Focus formation assay; assay type: cell-based
# Method: The inhibition of Dengue virus 2 by DET4 peptides and DET4 coupled to DNA nanostructures was investigated by focus formation assay. Target cells were seeded in a 96-well plate the day before infection. In a separate 96 well plate 200-500 virus particles per well were incubated with or without DET4 monomers and DET4-coupled DNA Trimers in different concentrations for 2 hours followed by transfer of the mixtures to confluent target cell monolayers and incubation for 1 h at 37° C.
# Subsequently fresh DMEM/2% (v/v) FBS containing 1.6% (w/v) Avicell was added to each well, covering the surface with microcrystalline cellulose to avoid spreading of the virus in the medium and enhancing formation of virus foci. Infected cells were incubated for 4 days followed by washing with PBS and fixing with 70% ethanol. Cells were rinsed with phosphate buffered saline, pH 7.4 (PBS) prior to immunostaining. Virus foci were detected using an Anti-flavivirus mouse monoclonal antibody that recognizes Dengue viruses, followed by horseradish peroxidase-conjugated goat anti-mouse immunoglobulin, and developed using TMB chromogen substrate. After washing, Virus foci were visible in the wells as blue spots that were counted for quantitative analysis. Counting results are presented in the table 1.
# [1] = system: influenza A infection of MDCKII cells; assay: Infection inhibition assay using MDCKII cells (cytopathic effect); assay type: cell-based
# Method: Also preferred is an infection inhibition assay. The infection inhibition assay using MDCKII cells and the MTT Test (or MTS). Inhibitor (peptide-conjugates DNA nanostructure) and virus are pre-incubated for 10-30 min at room temperature and added to cells (MDCKII for influenza, Vero E6 for Dengue). Viral infection of host cells can be tested after 24-72 h by either crystal violet staining or MTT/MTS reagents. Infected cells will slow down their metabolism and/or die after a certain time.
# The inhibition of the influence virus by different DNA scaffolds together with PeB is shown. It can be seen from SPR data in FIG. 8 that the binding of virus particles is increased when more peptides are presented on the DNA scaffold. […] No binding to the virus particles is seen when they are not carrying any peptides.
# FIG. 14A: Infection inhibition assay using MDCKII cells. This is a microscopic image of MDCKII cells. The cells form a healthy monolayer. No cytopathic effect (CPE) is seen.
# FIG. 14b: Infection inhibition assay using MDCKII cells. This is a microscopic image of MDCKII cells infected with influenza viruses. The cells begin to die. A cytopathic effect (CPE) (rounding up and small aggregations of the cells) is clearly seen.
# [2] = biological target: influenza A hemagglutinin (Influenza A virus, UniProt P03437); conditions: read-out: dissociation constant KD with hemagglutinin; cited from earlier work
# [3] = system: inactivated influenza A virus; assay type: binding; conditions: flow cell 4 vs flow cell 2
# influenza A viruses = assay: Hemagglutination inhibition assay (HAI); assay type: cell-based; conditions: dilution series, constant virus and blood, FIGS. 11-13
molecule,measurement,setting,value
AGVKDGKLDF [DET4],IC50,Dengue virus,35 µM
same,"inhibition of Dengue virus infection of target cells, result in words",Dengue virus 2,not able to inhibit viral infection
same,virus foci counted,Dengue virus 2; 10 μM,53
same,virus foci counted,Dengue virus 2; 50 μM,47
same,virus foci counted,Dengue virus 2; 100 μM,46
"ARDFYDYDVFYYAMD [PeB, reference compound]",inhibition of infection / cytopathic effect,[1]; 500 μM,more significant cytopathic effect; also recorded: not enough to inhibit the infection
same,Kd,[2],56.8 µM
"DNA 4-arm structure with 3×PeB: mimics the N structure with a fourth arm bearing biotin, carrying 3×PeB (ARDFYDYDVFYYAMD; also: stated molecule is a DNA 4-arm structure with biotin arm carrying 3×PeB)",dissociation time compared to the simple DNA double-strand (SPR),[3],slower dissociation time
B1,inhibition of infection / cytopathic effect,"[1]; 11 μM, listed as N with 3 peptides",clear inhibition
same,inhibition of infection / cytopathic effect,"[1]; 11 μM, listed as Trimer “N” with 3×PeB",Virus infection was inhibited
same,"inhibition of virus binding to RBCs (HAI), result in words",influenza A viruses,able to inhibit binding of the influenza A virus to red blood cells
same,"inhibition of virus binding to RBCs (HAI), result in words",influenza A viruses; listed as N,concentration-dependent increase in binding
same,"inhibition of virus binding to RBCs (HAI), result in words",influenza A viruses; listed as N_3×PeB,RBCs forming a dot on the bottom of the well can be seen for high concentrations; also recorded: hinder the viruses from binding to RBCs
